This is an account of results in patent US8476298B2 (Exelixis, Inc., priority 2003, dated 2013).

For orientation: IC50 means the concentration needed to halve the response being measured.

Where two headings read alike, the source gives them in different places.

Assay [1] deals with T1, c-Met (baculovirus expressed human c-Met kinase domain P948-S1343) (Homo sapiens, UniProt P08581).
T1 construct: human c-Met kinase domain P948-S1343; host or cells: baculovirus expression
Description: c-Met Luciferase-Coupled Chemiluminescent Kinase assay (LCCA).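 Further: kinase activity read as percent ATP left after reaction, by luciferase-luciferin chemiluminescence, with 1 µM ATP and 1 µM poly-EY substrate, 2 h at ambient temperature, 10-point dose-response.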 The class given is biochemical.

The target of assay [2] is c-Kit kinase (Homo sapiens, UniProt P10721). Description: c-Kit AlphaScreen kinase assay.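 Further: c-Kit kinase phosphorylating biotinylated poly(Glu,Tyr), ATP near its KM, 1 h reaction at ambient temperature, AlphaScreen chemiluminescence with streptavidin donor and anti-phosphotyrosine acceptor beads, 10-point inhibitor titration.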 The format is biochemical. In general terms: Alpha assays give light when donor and acceptor beads are brought close together.
c-Kit kinase, sequence (P10721 26-976): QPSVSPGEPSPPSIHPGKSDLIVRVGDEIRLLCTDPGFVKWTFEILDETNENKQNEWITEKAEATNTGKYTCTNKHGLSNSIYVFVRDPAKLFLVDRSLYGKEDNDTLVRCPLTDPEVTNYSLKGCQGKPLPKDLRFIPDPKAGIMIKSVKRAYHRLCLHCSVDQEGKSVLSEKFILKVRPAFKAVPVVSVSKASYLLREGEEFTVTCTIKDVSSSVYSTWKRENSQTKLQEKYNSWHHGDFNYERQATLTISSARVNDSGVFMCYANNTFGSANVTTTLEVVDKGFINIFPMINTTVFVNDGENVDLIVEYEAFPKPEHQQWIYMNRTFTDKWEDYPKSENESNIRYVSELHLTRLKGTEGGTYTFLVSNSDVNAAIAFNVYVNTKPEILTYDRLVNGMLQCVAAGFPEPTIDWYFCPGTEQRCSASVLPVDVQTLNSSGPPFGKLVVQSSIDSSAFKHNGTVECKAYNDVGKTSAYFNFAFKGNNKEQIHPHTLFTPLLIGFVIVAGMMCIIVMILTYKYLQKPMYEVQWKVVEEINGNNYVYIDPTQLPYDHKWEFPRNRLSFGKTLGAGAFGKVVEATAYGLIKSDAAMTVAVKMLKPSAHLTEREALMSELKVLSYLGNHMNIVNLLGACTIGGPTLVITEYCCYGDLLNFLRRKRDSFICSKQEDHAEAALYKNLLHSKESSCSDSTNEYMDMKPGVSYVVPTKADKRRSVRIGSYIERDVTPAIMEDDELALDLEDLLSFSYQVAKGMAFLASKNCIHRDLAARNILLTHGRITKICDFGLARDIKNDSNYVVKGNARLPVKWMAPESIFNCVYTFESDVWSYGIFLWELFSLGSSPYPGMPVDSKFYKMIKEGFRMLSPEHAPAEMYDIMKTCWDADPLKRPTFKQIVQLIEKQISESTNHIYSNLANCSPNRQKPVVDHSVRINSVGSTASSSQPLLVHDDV
Description: Kinase activity and compound inhibition are investigated using one or more of the three assay formats described below. The ATP concentrations for each assay are selected to be close to the Michaelis-Menten constant (KM) for each individual kinase. Dose-response experiments are performed at 10 different inhibitor concentrations in a 384-well plate format.
AlphaScreen™ (Perkin Elmer) technology is a proximity assay employing microparticles. Singlet oxygen derived from a donor bead following laser excitation results in chemiluminescence when in proximity (100 Å) to an acceptor bead due to biomolecular interactions.
c-Kit biochemical activity was assessed using AlphaScreen™ (Perkin Elmer) technology, described above. Test compounds, ATP, biotinylated poly(Glu, Tyr) and c-Kit kinase were combined in a volume of 20 μL in a 384-well white, medium binding microtiter plate (Greiner). Reaction mixtures were incubated for 1 hr at ambient temperature. […] After 16 hr incubation at ambient temperature plates were read using an AlphaQuest reader (Perkin Elmer).
Assay [3] has as its target T2, KDR (baculovirus expressed human KDR kinase domain D807-V1356) (Homo sapiens, UniProt P35968).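 Further: Luciferase-coupled chemiluminescent kinase assay, activity read as percent ATP left after 4 h reaction at ambient temperature, ATP near KM, 10-point dose-response in 384-well plates.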
T2 construct: human KDR kinase domain D807-V1356; host or cells: baculovirus expression
Description: biochemical.

Assay [4] deals with T3, Flt-4 (baculovirus expressed human Flt-4 kinase domain D725-R1298) (Homo sapiens, UniProt P35916).
T3 construct: human Flt-4 kinase domain D725-R1298; host or cells: baculovirus expression
T3 sequence (P35916 725-1298 isoform P35916-1): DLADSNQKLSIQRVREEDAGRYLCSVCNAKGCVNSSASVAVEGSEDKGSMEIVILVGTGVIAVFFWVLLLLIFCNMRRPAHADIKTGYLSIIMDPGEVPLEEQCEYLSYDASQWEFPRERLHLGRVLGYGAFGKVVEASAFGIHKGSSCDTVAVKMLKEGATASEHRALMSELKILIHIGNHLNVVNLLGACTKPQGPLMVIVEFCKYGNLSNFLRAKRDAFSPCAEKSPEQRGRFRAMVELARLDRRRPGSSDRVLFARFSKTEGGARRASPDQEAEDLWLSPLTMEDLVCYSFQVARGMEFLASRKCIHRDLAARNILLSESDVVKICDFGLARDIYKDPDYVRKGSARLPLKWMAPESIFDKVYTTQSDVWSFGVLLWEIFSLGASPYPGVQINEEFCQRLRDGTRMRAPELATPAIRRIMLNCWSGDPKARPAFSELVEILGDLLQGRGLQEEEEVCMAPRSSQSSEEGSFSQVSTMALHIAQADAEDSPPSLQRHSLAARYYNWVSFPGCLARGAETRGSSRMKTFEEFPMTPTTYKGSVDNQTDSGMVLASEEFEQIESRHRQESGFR
Description: flt-4 Alphascreen Tyrosine Kinase assay.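 Further: AlphaScreen chemiluminescence read-out of biotinylated poly(Glu,Tyr) 4:1 phosphorylation via streptavidin donor and PY100 anti-phosphotyrosine acceptor beads, ATP near KM, 1 hr kinase reaction, 10-point dose-response.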 The format is biochemical. To be noted: read-out: flt4 IC50.
Description: Kinase activity and compound inhibition are investigated using one or more of the three assay formats described below. The ATP concentrations for each assay are selected to be close to the Michaelis-Menten constant (KM) for each individual kinase. Dose-response experiments are performed at 10 different inhibitor concentrations in a 384-well plate format. […] Typically H is close to unity. c-Met Assay
Biochemical activity for flt-4 was assessed using an Alphascreen Tyrosine Kinase protocol. AlphaScreen™ (Perkin Elmer) technology is a proximity assay employing microparticles. Singlet oxygen derived from a donor bead following laser excitation results in chemiluminescence when in proximity (100 Å) to an acceptor bead due to biomolecular interactions. For the Flt-4 assay, donor beads coated with streptavidin and acceptor beads coated with PY100 anti-phosphotyrosine antibody were used (Perkin Elmer). Biotinylated poly(Glu,Tyr) 4:1 (Perkin Elmer) was used as the substrate. Substrate phosphorylation was measured by addition of donor/acceptor beads by chemiluminescence following donor-acceptor bead complex formation. […] Reaction mixtures were incubated for 1 hr at ambient temperature. […] After 2-16 hr incubation at ambient temperature plates were read using an AlphaQuest reader (Perkin Elmer).

For assay [5], the target named is T4, Flt-3 (baculovirus expressed human Flt-3 kinase domain R571-S993) (Homo sapiens, UniProt P36888).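 Further: Luciferase-coupled chemiluminescent kinase assay, activity read as percent ATP left after a 3 h reaction at room temperature, ATP near KM, 10-point dose-response.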
T4 construct: human Flt-3 kinase domain R571-S993; host or cells: baculovirus expression
T4 sequence (P36888 571-993): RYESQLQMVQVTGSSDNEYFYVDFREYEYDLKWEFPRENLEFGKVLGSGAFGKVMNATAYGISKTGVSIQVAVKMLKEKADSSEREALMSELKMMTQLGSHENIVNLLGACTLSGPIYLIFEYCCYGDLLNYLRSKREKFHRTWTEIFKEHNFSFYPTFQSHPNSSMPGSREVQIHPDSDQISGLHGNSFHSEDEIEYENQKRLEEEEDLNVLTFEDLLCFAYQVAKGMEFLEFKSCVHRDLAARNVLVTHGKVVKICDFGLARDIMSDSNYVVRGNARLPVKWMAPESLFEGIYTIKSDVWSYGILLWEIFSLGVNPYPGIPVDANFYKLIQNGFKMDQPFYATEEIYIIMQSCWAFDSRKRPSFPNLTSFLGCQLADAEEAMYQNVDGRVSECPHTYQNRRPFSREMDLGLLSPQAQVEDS
Nature of the assay: biochemical. To be noted: read-out: flt3 IC50.

[6] abbreviates: Table 4, inhibition as IC50 class.

T2 sequence (P35968 807-1356): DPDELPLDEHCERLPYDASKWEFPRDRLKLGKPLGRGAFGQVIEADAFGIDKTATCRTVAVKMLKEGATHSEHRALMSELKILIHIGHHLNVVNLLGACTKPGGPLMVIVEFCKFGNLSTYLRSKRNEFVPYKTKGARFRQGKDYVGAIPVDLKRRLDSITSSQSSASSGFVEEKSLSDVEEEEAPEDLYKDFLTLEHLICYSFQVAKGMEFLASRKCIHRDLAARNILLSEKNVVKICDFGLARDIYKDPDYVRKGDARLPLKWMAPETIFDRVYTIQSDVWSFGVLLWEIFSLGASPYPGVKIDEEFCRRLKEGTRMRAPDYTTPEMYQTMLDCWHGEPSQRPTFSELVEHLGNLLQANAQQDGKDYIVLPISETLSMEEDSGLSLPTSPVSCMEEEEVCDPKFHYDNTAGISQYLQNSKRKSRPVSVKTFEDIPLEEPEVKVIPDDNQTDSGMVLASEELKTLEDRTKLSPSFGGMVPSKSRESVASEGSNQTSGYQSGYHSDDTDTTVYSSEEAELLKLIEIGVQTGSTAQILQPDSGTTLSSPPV
T1 sequence (P08581 1011-1343 limits assumed): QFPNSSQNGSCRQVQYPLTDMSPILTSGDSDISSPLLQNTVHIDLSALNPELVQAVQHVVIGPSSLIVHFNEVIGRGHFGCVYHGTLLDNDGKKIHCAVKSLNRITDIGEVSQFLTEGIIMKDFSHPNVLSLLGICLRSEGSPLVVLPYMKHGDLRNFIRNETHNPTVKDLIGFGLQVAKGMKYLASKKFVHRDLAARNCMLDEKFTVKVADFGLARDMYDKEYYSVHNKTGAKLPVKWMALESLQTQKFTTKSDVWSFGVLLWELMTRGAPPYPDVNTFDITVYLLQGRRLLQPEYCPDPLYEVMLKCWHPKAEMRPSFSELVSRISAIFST

With `COc1cc2c(Oc3ccc(NC(=O)C(=O)NCc4ccc(F)c(C(F)(F)F)c4)cc3F)ccnc2cc1OCC1CCNCC1` [Example 216, N-[3-fluoro-4-({6-(methyloxy)-7-[(piperidin-4-ylmethyl)oxy]quinolin-4-yl}oxy)phenyl]-N′-{[4-fluoro-3-(trifluoromethyl)phenyl]methyl}ethanediamide], the IC50 is less than 50 nM in assay [1] (setting [6]); 50 to 500 nM in assay [2] (setting [6]); less than 50 nM in assay [3] (setting [6]); less than 50 nM in assay [4] (setting [6]); less than 50 nM in assay [5] (setting [6]).

Regarding `COc1cc2c(Oc3ccc(NC(=O)C(=O)NCc4cccc(C(F)(F)F)c4)cc3F)ccnc2cc1OCC1CCNCC1` [Example 239, N-[3-fluoro-4-({6-(methyloxy)-7-[(piperidin-4-ylmethyl)oxy]quinolin-4-yl}oxy)phenyl]-N′-{[3-(trifluoromethyl)phenyl]methyl}ethanediamide], the 50% inhibitory concentration (IC50) is less than 50 nM in assay [1] (setting [6]); less than 50 nM in assay [2] (setting [6]); less than 50 nM in assay [3] (setting [6]); 50 to 500 nM in assay [4] (setting [6]); less than 50 nM in assay [5] (setting [6]).

For the compound `COc1ccc(CCNC(=O)C(=O)Nc2ccc(Oc3ccnc4cc(OCC5CCNCC5)c(OC)cc34)c(F)c2)cc1` [Example 228, N-[3-fluoro-4-({6-(methyloxy)-7-[(piperidin-4-ylmethyl)oxy]quinolin-4-yl}oxy)phenyl]-N′-{2-[4-(methyloxy)phenyl]ethyl}ethanediamide], the half-inhibitory concentration (IC50) is less than 50 nM in assay [1] (setting [6]); 50 to 500 nM in assay [2] (setting [6]); 50 to 500 nM in assay [3] (setting [6]); 50 to 500 nM in assay [4] (setting [6]); 50 to 500 nM in assay [5] (setting [6]).

As for `COc1cc2c(Oc3ccc(NC(=O)C(=O)NCCOc4ccccc4)cc3F)ccnc2cc1OCC1CCNCC1` [Example 226, N-[3-fluoro-4-({6-(methyloxy)-7-[(piperidin-4-ylmethyl)oxy]quinolin-4-yl}oxy)phenyl]-N′-[2-(phenyloxy)ethyl]ethanediamide], the IC50 in assay [1] (setting [6]), in assay [2] (setting [6]), in assay [3] (setting [6]), in assay [4] (setting [6]) and in assay [5] (setting [6]) was less than 50 nM each time.

`COc1cc2c(Oc3ccc(NC(=O)C(=O)N[C@@H](Cc4ccccc4)C(=O)N4CCCC4)cc3F)ccnc2cc1OCC1CCNCC1` [Example 284, N-[3-fluoro-4-({6-(methyloxy)-7-[(piperidin-4-ylmethyl)oxy]quinolin-4-yl}oxy)phenyl]-N′-[(1S)-2-oxo-1-(phenylmethyl)-2-pyrrolidin-1-ylethyl]ethanediamide]: the concentration for half-maximal inhibition (IC50) in assay [1] is less than 50 nM; in assay [2], 50 to 500 nM; in assay [3] it was 500 to 5000 nM; in assay [4] it was 500 to 5000 nM; in assay [5], 50 to 500 nM.

With `COc1ccc(Br)cc1CCNC(=O)C(=O)Nc1ccc(Oc2ccnc3cc(OCC4CCNCC4)c(OC)cc23)c(F)c1` [Example 280, N-{2-[5-bromo-2-(methyloxy)phenyl]ethyl}-N′-[3-fluoro-4-({6-(methyloxy)-7-[(piperidin-4-ylmethyl)oxy]quinolin-4-yl}oxy)phenyl]ethanediamide], the concentration for half-maximal inhibition (IC50) in assay [1] (setting [6]), in assay [2] (setting [6]), in assay [3] (setting [6]), in assay [4] (setting [6]) and in assay [5] (setting [6]) was less than 50 nM throughout.

Consider `COc1cc2c(Oc3ccc(NC(=O)C4(C(=O)Nc5ccc(F)cc5)CC4)c(C)c3)ccnc2cc1OCCCN1CCOCC1` [Example 331, N-(4-fluorophenyl)-N′-[2-methyl-4-({6-(methyloxy)-7-[(3-morpholin-4-ylpropyl)oxy]quinolin-4-yl}oxy)phenyl]cyclopropane-1,1-dicarboxamide], for which the half-inhibitory concentration (IC50) was less than 50 nM in assay [1]; less than 50 nM in assay [2]; less than 50 nM in assay [3]; less than 50 nM in assay [4]; 50 to 500 nM in assay [5].

`COc1cc2c(Oc3ccc(NC(=O)C(=O)NCc4cccc(F)c4F)cc3F)ccnc2cc1OCC1CCNCC1` [Example 225, N-[(2,3-difluorophenyl)methyl]-N′-[3-fluoro-4-({6-(methyloxy)-7-[(piperidin-4-ylmethyl)oxy]quinolin-4-yl}oxy)phenyl]ethanediamide]: the half-inhibitory concentration (IC50) in assay [1] (setting [6]) is less than 50 nM; in assay [2] (setting [6]), 50 to 500 nM; in assay [3] (setting [6]), less than 50 nM; in assay [4] (setting [6]), less than 50 nM; in assay [5] (setting [6]), 50 to 500 nM.

Take `COc1cc2c(Oc3ccc(NC(=O)C(=O)NCCc4ccc(F)cc4)cc3F)ccnc2cc1OCC1CCN(C)CC1` [Example 258, N-{3-fluoro-4-[(6-(methyloxy)-7-{[(1-methylpiperidin-4-yl)methyl]oxy}quinolin-4-yl)oxy]phenyl}-N′-[2-(4-fluorophenyl)ethyl]ethanediamide]: the half-inhibitory concentration (IC50) in assay [1] (setting [6]), in assay [2] (setting [6]), in assay [3] (setting [6]), in assay [4] (setting [6]) and in assay [5] (setting [6]) was less than 50 nM in each case.

On to `CCCCNC(=O)C(=O)Nc1ccc(Oc2ccnc3cc(OCC4CCNCC4)c(OC)cc23)c(F)c1` [Example 295, N-butyl-N′-[3-fluoro-4-({6-(methyloxy)-7-[(piperidin-4-ylmethyl)oxy]quinolin-4-yl}oxy)phenyl]ethanediamide], for which the IC50 is less than 50 nM in assay [1]; 50 to 500 nM in assay [2]; 50 to 500 nM in assay [3]; 50 to 500 nM in assay [4]; 50 to 500 nM in assay [5].

`COc1cc2c(Oc3ccc(NC(=O)[C@]4(C(=O)Nc5ccc(F)cc5)C[C@H]4C)cc3F)ccnc2cc1OCCCN1CCOCC1` [Example 343, (1R,2R)-N-[3-fluoro-4-({6-(methyloxy)-7-[(3-morpholin-4-ylpropyl)oxy]quinolin-4-yl}oxy)phenyl]-N′-(4-fluorophenyl)-2-methylcyclopropane-1,1-dicarboxamide]: the concentration for half-maximal inhibition (IC50) in assay [1], in assay [2], in assay [3], in assay [4] and in assay [5] was less than 50 nM each time.

As for `COc1ccc(NC(=O)C(=O)Nc2ccc(Oc3ccnc4cc(OCC5CCNCC5)c(OC)cc34)c(F)c2)cc1OC` [Example 262, N-[3,4-bis(methyloxy)phenyl]-N′-[3-fluoro-4-({6-(methyloxy)-7-[(piperidin-4-ylmethyl)oxy]quinolin-4-yl}oxy)phenyl]ethanediamide], the half-inhibitory concentration (IC50) is less than 50 nM in assay [1] (setting [6]); 500 to 5000 nM in assay [2] (setting [6]); 500 to 5000 nM in assay [3] (setting [6]); 50 to 500 nM in assay [4] (setting [6]); 50 to 500 nM in assay [5] (setting [6]).

As to `COc1cc2c(Oc3ccc(NC(=O)C(=O)NCc4cccc(OC(F)(F)F)c4)cc3F)ccnc2cc1OCC1CCNCC1` [Example 240, N-[3-fluoro-4-({6-(methyloxy)-7-[(piperidin-4-ylmethyl)oxy]quinolin-4-yl}oxy)phenyl]-N′-({3-[(trifluoromethyl)oxy]phenyl}methyl)ethanediamide], the IC50 in assay [1] (setting [6]), in assay [2] (setting [6]), in assay [3] (setting [6]), in assay [4] (setting [6]) and in assay [5] (setting [6]) was less than 50 nM throughout.

Turning to `COc1cc2nccc(Oc3ncc(NC(=O)CC(=O)Nc4ccccc4)cc3Cl)c2cc1OC` [Example 291, N-(6-{[6,7-bis(methyloxy)quinolin-4-yl]oxy}-5-chloropyridin-3-yl)-N′-phenylpropanediamide], the IC50 in assay [1] is less than 50 nM; in assay [2], 50 to 500 nM; in assay [3], 500 to 5000 nM; in assay [4], 500 to 5000 nM; in assay [5], less than 50 nM.
